The values below come from patent US20260015574A1, “METHODS FOR SHORTENING LAG PHASE DURATION IN MICROORGANISMS” (YEDA RESEARCH AND DEVELOPMENT CO. LTD., priority 2022, published 2026).

In one assay the test system is Various marine bacteria. The assay can be described thus: Lag phase shortening in various marine bacteria. The class given is cell-based. To be noted: minute amounts of compound. How it is done:
The bacterial strain Phaeobacter inhibens DSM 17395 was purchased from the German collection of microorganisms and cell cultures (DSMZ, Braunschweig, Germany) and stored at −80° C. with 20% glycerol. Routine cultivation of P. inhibens was conducted at 30° C. in artificial seawater medium (ASW) based on Goyet and Poisson (1989). The ASW medium contained mineral salts (NaCl, 409.41 mM; Na2SO4, 28.22 mM; KCl, 9.08 mM; KBr, 0.82 mM; NaF, 0.07 mM; Na2CO3, 0.20 mM; NaHCO3, 2 mM; MgCl2, 50.66 mM; SrCl2, 0.09 mM), L1 vitamins (thiamine HCl, 100 μg/L; biotin, 0.5 μg/L; vitamin B12, […]), L1 trace elements (Na2EDTA·2H2O, 4.36 mg/L; FeCl3·6H2O, 3.15 mg/L; MnCl2·4H2O, 178.1 μg/L; ZnSO4·7H2O, 23.0 μg/L; CoCl2·6H2O, 11.9 μg/L; CuSO4·5H2O, 2.5 μg/L; Na2MoO4·2H2O, 19.9 μg/L; H2SeO3, 1.29 μg/L; NiSO4·6H2O, 2.63 μg/L; Na3 VO4, 1.84 μg/L; K2CrO4, 1.94 μg/L), and L1 nutrients (NaNO3, 882 μM; NaH2PO4, 36.22 μM). ASW was adjusted to pH 8 using HCl. […] A 96-well Tecan Infinite M Plex plate reader was used for high-resolution monitoring of bacterial growth dynamics at 30° C. […] The growth of bacteria in co-culture with algae was monitored by counting colony forming units (CFU) on ½ YTSS agar plates. The growth of algae was monitored with a CellStream flow cytometer (Merck, Darmstadt, Germany). […]

In the next assay the test system is E. coli. Kind of assay: Lag phase shortening in E. coli. The class given is cell-based, Escherichia coli. To be noted: treatment with algal metabolites. From the text:
(§1) To explore whether lag phase shortening is a general mechanism among bacteria, the inventors tested the effect of methylated compounds in bacteria with different lifestyles. […] Since methylated compounds are a hallmark of photosynthesizing organisms, the inventors next tested a variety of bacteria that are plant-associated. […] Finally, to establish the prevalence of lag phase shortening among bacteria, the inventors tested the model bacterium E. coli. This bacterium is not commonly found associated with photosynthesizing organisms, and thus, is unlikely to respond to algal metabolites. […] The synchrony between specific compounds and different groups of bacteria may reflect the natural context […].

The test system of assay [1] is bacteria that are plant-associated. Kind of assay: Lag phase shortening in plant-associated bacteria. In kind it is cell-based.
From the text: as §1

Regarding `C[S+](C)CCC(=O)[O-]` [DMSP, dimethylsulfoniopropionate], the lag phase shortening result is “marked lag phase shortening” in the assay with Various marine bacteria, “did not shorten the lag phase” in the assay with E. coli and “to slightly less extent” in assay [1].
